Data on four compounds can be found in patent US4389403A, “1-Aroyl-2-phenylamino-2-imidazolines, drugs containing these compounds, and use thereof” (BASF Aktiengesellschaft, priority 1980, dated 1983).

Data set [1] deals with spontaneously hypertonic Okamoto rats (SH rats). As to the kind of experiment: Anti-hypertensive action, systolic blood pressure in spontaneously hypertonic rats, oral. Format: in vivo, rat (male spontaneously hypertonic Okamoto rats). The conditions noted are these: oral administration; for ED20: Rattus norvegicus, dose lowering systolic pressure by 20%, 2 h after administration, read-out: Anti-hypertensive effect ED 20%; for Anti-hypertensive effect R.E. (relative effectiveness): relative to clonidine = 1.00. The protocol: The compounds are administered orally to groups of 4-8 male spontaneously hypertonic Okamoto rats (SH rats). Before, and two hours after, the administration, the systolic blood pressure is measured on the tail of the rat by means of a piezoelectric sensor.
The ED 20% is determined, from the dose-effect relationship and taking into account the values found with untreated control animals, as the dose which lowers the systolic pressure by 20%.

Data set [2] can be described thus: Acute toxicity (LD 50). The conditions noted are these: rat, in vivo, po. The protocol:
To determine the acute toxicity (LD 50), the compounds are administered orally to groups of 10 male Sprague-Dawley rats each weighing 150-320 g. The period of observation is 1 week.

The conditions of data set [3]: German Published Application DAS No. 2,559,711; cited from earlier work.
For data set [4] the following is noted: compared with clonidine; DAS No. 2,559,711; cited from earlier work.
The conditions of data set [5]: DAS No. 2,559,711; cited from earlier work.
Data set [6] can be described thus: Narcosis-prolonging action in rats (chloral hydrate narcosis), sedative action. The conditions noted are these: rat, in vivo, po.
Procedure: (§1) The time at which the righting reflex ceases to function is measured.
(§2) The reference substances were the conventional anti-hypertensive agents clonidine and benclonidine.
(§3) An undesired side-effect of clonidine is the central-suppressive (sedative) action, which was tested using, as a model, the prolongation of chloral hydrate narcosis.
The test system of data set [7] is chloral hydrate narcosis in Sprague-Dawley rats. The description is as above. The conditions noted are these: for Narcosis-prolonging effect R.E. (relative effectiveness): rats, oral administration, relative to clonidine = 1.00.
Procedure: as §1, §2, §3

Broadly, the LD50 is the dose at which mortality reaches 50%. A lower LD50 goes with greater toxicity. In general, ED50 refers to the dose at which the effect has come halfway, by size or by number of responders. As for `O=C(c1ccccc1)N1CCN=C1Nc1c(Cl)cccc1Cl` [Benclonidine, 1-benzoyl-2-(2',6'-dichlorophenylamino)-2-imidazoline], in data set [1], the ED20 turned out to be 0.836 mg/kg and the “Anti-hypertensive effect R.E. (relative effectiveness)” value stood at 0.10. This compound had an LD50 at 168 h in data set [2] of 68.1 mg/kg. Besides, the “blood pressure-reducing properties” value in data set [3] is reported as “exhibits blood pressure-reducing properties”. For the same compound, in data set [4], the “sedative side-effects” value is on record as “lesser sedative side-effects than the parent compound clonidine”. In data set [5], the “absorption on oral administration” value is listed as “efficiently absorbed on oral administration”. For the same compound, in data set [6], it took a dose of 0.948 mg/kg to reach the 50% effect level (ED50) and the selectivity ratio was determined as 1.13. For the same compound, the “Narcosis-prolonging effect R.E. (relative effectiveness)” value in data set [7] is given as 0.06.
With `Clc1cccc(Cl)c1NC1=NCCN1` [Clonidine, 2-(2',6'-dichlorophenylamino)-2-imidazoline], in data set [1], the ED20 was determined as 0.0829 mg/kg and the “Anti-hypertensive effect R.E. (relative effectiveness)” value amounted to 1.00. Further, the LD50 at 168 h in data set [2] stood at 67.3 mg/kg. In addition, in data set [3], the “blood pressure-reducing properties” value is “exhibits blood pressure-reducing properties”. In data set [6], the ED50 turned out to be 0.0565 mg/kg and the selectivity ratio was 0.68. For the same compound, the “Narcosis-prolonging effect R.E. (relative effectiveness)” value in data set [7] was 1.00.
Turning to `O=C(c1cccnc1)N1CCN=C1Nc1c(Cl)cccc1Cl` [Example 1, 1-nicotinoyl-2-(2',6'-dichlorophenylamino)-2-imidazoline], in data set [1], the ED20 was found to be 0.0786 mg/kg and the “Anti-hypertensive effect R.E. (relative effectiveness)” value amounted to 1.05. The LD50 at 168 h in data set [2] amounted to 80 mg/kg. For the same compound, in data set [6], the 50% effect level (ED50) was put at a dose of 0.1 mg/kg and the selectivity ratio turned out to be 1.27. For the same compound, the “Narcosis-prolonging effect R.E. (relative effectiveness)” value in data set [7] was found to be 0.57.
`O=C(c1ccc2ccccc2n1)N1CCN=C1Nc1c(Cl)cccc1Cl` [Example 45, 1-(quinolin-2-oyl)-2-(2',6'-dichlorophenylamino)-2-imidazoline]: in data set [1], the ED20 was determined as 0.0856 mg/kg and the “Anti-hypertensive effect R.E. (relative effectiveness)” value is on record as 0.97. The compound also came in with an LD50 at 168 h in data set [2] of 44 mg/kg. Besides, in data set [6], the ED50 stood at 0.464 mg/kg and the selectivity ratio was determined as 5.42. Further, the “ratio of sedative to anti-hypertensive doses compared with clonidine or benclonidine” value in data set [7] (compared with clonidine or benclonidine) is “substantially more advantageous”. Further, the “Narcosis-prolonging effect R.E. (relative effectiveness)” value in data set [7] is 0.12.
